Experiment: Fluorescent hydrogel phase glucose responsive assay (10 mM PBS, pH 7.4, 310 K)
Conditions: 20 mM D-glucose, GBM2 10 uM, FIM 1 uM
Procedure: The fluorescence spectrum of the corresponding hydrogel, already swollen in 200 μL of 10 mM PBS, in a well plate was recorded by exciting at the designated excitation frequency and monitoring at the typical emission maximum (Emmax). The PBS top solution was removed either by micropipette or by decanting onto an absorbent material. A 200 μL solution of D-glucose (in 10 mM PBS) at the required concentration was added to each hydrogel in the well plate and the system allowed to reach equilibrium. The emission spectra for each well were collected after this and compared to the original baseline emission, monitoring at the typical emission maximum (Emmax), and the percentage increase or decrease recorded. The change in emission was recorded for each hydrogel in the well plate (up to 96 individual hydrogel sensors) or an average of all wells was used. The hydrogel bound assays were then investigated for reproducibility by cycling with solutions of PBS or D-glucose. This was achieved by removal of the previous top solution (e.g. D-glucose) by micropipette or decanting onto an absorbent material and replacing with another solution (e.g. 10 mM PBS). […] Emission spectra acquired using a Clariostar plus plate reader.
(§1) Hydroxyethylmethacrylate (2.85 g), TEGDMA (0.15 g), VAZO-44 (0.12 mg), ethylene glycol (1.06 g) and water (1.33 g) were added to a glass vial and vortexed/sonicated until a homogeneous solution. Concentrated aliquots (<50 μL) of the appropriate GBM and FIM from pre-made stock solutions were added to give the required final concentrations of GBM and FIM (i.e. 50 μL of GBM stock solution at 1 mM gives a final GBM concentration of 10 μM in the pre-gel solution). A 50 μL aliquot of this GBM and FIM containing pre-gel solution was pipetted into each well of a transparent flat-bottomed polystyrene 96 well plate. 100 μL of n-butanol was layered on top of the pre-gel solution in each well plate and each well plate covered with a loose transparent well plate lid. The well plate was then placed in a nitrogen flushed desiccator, which was then placed into a pre-heated oven at 45° C. for 4 hours. The well plates were then removed from the oven, allowed to cool to RT and the top solution removed by decanting onto an absorbent material. The hydrogels were then washed and swelled by submerging in one litre of pure water or 10 mM PBS for 24 hours. Each well within the well plate containing hydrogel bound assay was then washed with D-glucose (50 mM) and then 10 mM PBS multiple times until the observed fluorescence emission stabilised to give a baseline emission value in 10 mM PBS. These hydrogels were then used for determining assay performance and reversibility studies.
as §1, with “(1.95” for “(2.85”, “PEGDA (0.57” for “TEGDMA (0.15”, “(0.04” for “(0.12”, “200 mM methyl-p-D-glucopyranoside (aqueous, 1.39” for “water (1.33”, “FIM.” for “FIM (i.e. 50 μL of GBM stock solution at 1 mM gives a final GBM concentration of 10 μM in the pre-gel solution).”, “hours.” for “hours. Each well within the well plate containing hydrogel bound assay was then washed with D-glucose (50 mM) and then 10 mM PBS multiple times until the observed fluorescence emission stabilised to give a baseline emission value in 10 mM PBS. These hydrogels were then used for determining assay performance and reversibility studies.”

[1] = Ex 470/Emmax 530 nm, hydrogel A (HEMA/TEGDMA)
[2] = Ex 470/Emmax 530 nm, hydrogel C (polyacrylamide/bis-acrylamide)

Compound | Change in Emmax for FIM at a particular D-glucose concentration (Ex 515/Emmax 550 nm, hydrogel A (HEMA/TEGDMA)) [%] | Change in Emmax for FIM at a particular D-glucose concentration (Ex 515/Emmax 550 nm, hydrogel C (polyacrylamide/bis-acrylamide)) [%] | Change in Emmax for FIM at a particular D-glucose concentration [1] [%] | Change in Emmax for FIM at a particular D-glucose concentration [2] [%]
C=CC(=O)NCCOCCOCCOCCOCCOCCOCCC(=O)NCCCC[C@@H](C(=O)Nc1ccc(CCO[C@@H]2O[C@H](CO)[C@@H](O)[C@H](O)[C@H]2O)cc1)n1cc(CNC(=O)c2ccc(C(=O)O)c(-c3c4cc(C)c(=NCC)cc-4oc4cc(NCC)c(C)cc34)c2)nn1 [FIM16] | 45 | 50 |  | 
C=CC(=O)NC(Cc1cn(CCOCCOc2ccc(CCO[C@@H]3O[C@H](CO)[C@@H](O)[C@H](O)[C@H]3O)cc2)nn1)C(=O)Nc1ccc2c(c1)C(=O)OC21c2ccc(O)cc2Oc2cc(O)ccc21 (stereo partly drawn) [FIM21] |  |  | 0 | 
C=CC(=O)NCCCC[C@@H](C(=O)Nc1ccc2c(c1)C(=O)OC21c2ccc(O)cc2Oc2cc(O)ccc21)n1cc(-c2ccc(CCO[C@@H]3O[C@H](CO)[C@@H](O)[C@H](O)[C@H]3O)cc2)nn1 [FIM22] |  |  | 10 | 15
C=CC(=O)NCCOCCOCCOCCOCCOCCOCCC(=O)NCCCC[C@@H](C(=O)Nc1ccc(CCO[C@@H]2O[C@H](CO)[C@@H](O)[C@H](O)[C@H]2O)cc1)n1cc(CNC(=O)c2ccc3c(c2)C(=O)OC32c3ccc(O)cc3Oc3cc(O)ccc32)nn1 [FIM23] |  |  | 10 | 15
C=CC(=O)NCCOCCOCCOCCOCCOCCOCCC(=O)NCCCC[C@@H](C(=O)Nc1ccc2c(c1)C(=O)OC21c2ccc(O)cc2Oc2cc(O)ccc21)n1cc(-c2ccc(CCO[C@@H]3O[C@H](CO)[C@@H](O)[C@H](O)[C@H]3O)cc2)nn1 [FIM24] |  |  | 8 | 
C=CC(=O)NCCOCCOCCOCCOCCOCCOCCC(=O)NCCCC[C@@H](C(=O)Nc1ccc2c(c1)C(=O)OC21c2ccc(O)cc2Oc2cc(O)ccc21)n1cc(-c2ccc(CCO[C@@H]3O[C@H](C(=O)O)[C@@H](O)[C@H](O)[C@H]3O)cc2)nn1 [FIM25] |  |  | 12 | 
